Measured values: PubChem BioAssay (NCI)
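Cultured in 96-well plates, cells were exposed to test compound for 48 hours across five concentrations. TGI denotes the concentration required for complete inhibition of growth.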

Experiments:
Assay in all cases: growth of human tumour cells (NCI), 48 h
[1] = test system: HOP-62 NSCLC
[2] = test system: OVCAR-8 ovarian
[3] = test system: LOX IMVI melanoma
[4] = test system: UO-31 renal
[5] = test system: MALME-3M melanoma
[6] = test system: HT29 colon
[7] = test system: SF-268 CNS
[8] = test system: HCT-116 colon
[9] = test system: HOP-92 NSCLC
[10] = test system: T-47D breast
[11] = test system: SF-295 CNS
[12] = test system: SK-OV-3 ovarian
[13] = test system: MDA-N
[14] = test system: NCI-H226 lung

COc1cccc(CCn2c(N)c(C#N)c3ccc([N+](=O)[O-])cc3c2=O)c1
TGI [1]: > 31.6 µM
TGI [2]: > 46.4 µM
TGI [3]: > 46.4 µM
TGI [4]: > 46.4 µM
TGI [5]: > 31.6 µM
TGI [6]: > 31.6 µM
TGI [7]: > 46.4 µM
TGI [8]: > 46.4 µM
TGI [9]: > 31.6 µM
TGI [10]: > 46.4 µM
TGI [11]: > 31.6 µM
TGI [12]: > 31.6 µM
TGI [13]: > 100 µM
TGI [14]: > 31.6 µM

Cn1c(N)c(/C=C/C(=O)Oc2ccccc2)c(=O)n(C)c1=O
TGI [1]: 40.9 µM
TGI [2]: > 100 µM
TGI [3]: > 100 µM
TGI [4]: > 100 µM
TGI [5]: > 100 µM
TGI [6]: > 100 µM
TGI [7]: > 100 µM
TGI [8]: > 100 µM
TGI [9]: 93 µM
TGI [10]: > 100 µM
TGI [11]: 93.6 µM
TGI [12]: > 100 µM
TGI [13]: > 100 µM
TGI [14]: > 100 µM

CC1(C)CCC[C@@]2(C)C1CC[C@@]1(CO1)[C@@H]2/C=C\C(C=O)CC=O (stereo not given in full)
TGI [1]: > 100 µM
TGI [2]: > 100 µM
TGI [3]: > 100 µM
TGI [4]: > 100 µM
TGI [5]: > 100 µM
TGI [6]: > 100 µM
TGI [7]: > 100 µM
TGI [8]: > 100 µM
TGI [9]: > 100 µM
TGI [10]: > 100 µM
TGI [11]: > 100 µM
TGI [12]: > 100 µM
TGI [13]: > 100 µM
TGI [14]: > 100 µM

Cc1ccc(CN2CCN(Cc3ccc(C)o3)C(C)C2)o1 (stereo not given)
TGI [1]: > 100 µM
TGI [2]: > 100 µM
TGI [3]: > 100 µM
TGI [4]: > 100 µM
TGI [5]: > 100 µM
TGI [6]: > 100 µM
TGI [7]: > 100 µM
TGI [8]: > 100 µM
TGI [9]: > 100 µM
TGI [10]: > 100 µM
TGI [11]: > 100 µM
TGI [12]: > 100 µM
TGI [13]: > 100 µM
TGI [14]: > 100 µM

CC1=NNC(=O)C1C1C=C(c2c[nH]c3ccccc23)OC1=O (stereo not given)
TGI [1]: > 100 µM
TGI [2]: > 100 µM
TGI [3]: > 100 µM
TGI [4]: > 100 µM
TGI [5]: > 100 µM
TGI [6]: > 100 µM
TGI [7]: > 100 µM
TGI [8]: > 100 µM
TGI [9]: > 100 µM
TGI [10]: > 100 µM
TGI [11]: > 100 µM
TGI [12]: > 100 µM
TGI [13]: > 100 µM
TGI [14]: > 100 µM

CC(C)(C)NC(=S)N/N=C/c1ccccn1
TGI [1]: > 79.8 µM
TGI [2]: > 40.7 µM
TGI [3]: > 76.7 µM
TGI [4]: > 47.8 µM
TGI [5]: > 100 µM
TGI [6]: > 100 µM
TGI [7]: > 100 µM
TGI [8]: 1.02 µM
TGI [9]: 89.3 µM
TGI [10]: > 100 µM
TGI [11]: > 100 µM
TGI [12]: > 100 µM
TGI [13]: > 100 µM
TGI [14]: > 25.9 µM

COC(=O)C1=COC2OC3CC1C2C(C)O3 (stereo not given)
TGI [1]: > 100 µM
TGI [2]: > 100 µM
TGI [3]: > 100 µM
TGI [4]: > 100 µM
TGI [5]: > 100 µM
TGI [6]: > 100 µM
TGI [7]: > 100 µM
TGI [8]: > 100 µM
TGI [9]: > 100 µM
TGI [10]: > 100 µM
TGI [11]: > 100 µM
TGI [12]: > 100 µM
TGI [13]: > 100 µM
TGI [14]: > 100 µM

Cc1ccc(O)c(C2=NNC(c3cccc(Cl)c3)C2)c1 (stereo not given)
TGI [1]: > 100 µM
TGI [2]: > 100 µM
TGI [3]: > 100 µM
TGI [4]: > 100 µM
TGI [5]: > 100 µM
TGI [6]: > 100 µM
TGI [7]: > 100 µM
TGI [8]: > 100 µM
TGI [9]: 81.7 µM
TGI [10]: > 100 µM
TGI [11]: > 100 µM
TGI [12]: > 100 µM
TGI [13]: 88.1 µM
TGI [14]: > 100 µM

COC(=O)/C(C#N)=C/c1cc(C(C)(C)C)c(O)c(C(C)(C)C)c1
TGI [1]: 11.3 µM
TGI [2]: 33.6 µM
TGI [3]: 17 µM
TGI [4]: 10 µM
TGI [5]: 20.4 µM
TGI [6]: 12.1 µM
TGI [7]: > 40.5 µM
TGI [8]: 10.5 µM
TGI [9]: 12.4 µM
TGI [10]: 19.4 µM
TGI [11]: 6.74 µM
TGI [12]: 8.04 µM
TGI [13]: 13.3 µM
TGI [14]: 9.6 µM

O=c1[nH]c(=O)n(C2CC(O)C(COP(=O)(OCC(Cl)(Cl)Cl)OCC(Cl)(Cl)Cl)O2)cc1F (stereo not given)
TGI [1]: 1.53 µM
TGI [2]: > 100 µM
TGI [3]: > 100 µM
TGI [4]: > 100 µM
TGI [5]: > 100 µM
TGI [6]: > 100 µM
TGI [7]: > 100 µM
TGI [8]: > 100 µM
TGI [9]: > 100 µM
TGI [10]: > 100 µM
TGI [11]: > 100 µM
TGI [12]: > 100 µM
TGI [13]: > 100 µM
TGI [14]: > 100 µM

CC(C)CC1NC(=O)CCC(NC(=O)C(Cc2ccc(O)cc2)NC(=O)OCc2ccccc2)C(=O)NC(Cc2ccccc2)C(=O)NC(Cc2ccccc2)NC1=O (stereo not given)
TGI [1]: > 100 µM
TGI [2]: > 100 µM
TGI [3]: > 100 µM
TGI [4]: > 100 µM
TGI [5]: > 100 µM
TGI [6]: > 100 µM
TGI [7]: > 100 µM
TGI [8]: > 100 µM
TGI [9]: > 100 µM
TGI [10]: > 100 µM
TGI [11]: > 100 µM
TGI [12]: > 100 µM
TGI [13]: > 100 µM
TGI [14]: > 100 µM

Cc1ccc2c(c1)CC1(C2)Cc2ccc(C)cc2C1=O (stereo not given)
TGI [1]: 97.8 µM
TGI [2]: > 100 µM
TGI [3]: 36.4 µM
TGI [4]: > 100 µM
TGI [5]: 43.8 µM
TGI [6]: 56.2 µM
TGI [7]: > 100 µM
TGI [8]: 71.9 µM
TGI [9]: 66.3 µM
TGI [10]: > 100 µM
TGI [11]: > 100 µM
TGI [12]: > 100 µM
TGI [13]: 73.1 µM
TGI [14]: 61.6 µM

COC(=O)CNC(=O)CSc1nnc(COc2ccc(Cl)cc2)n1-c1ccccc1
TGI [1]: > 100 µM
TGI [2]: 92.9 µM
TGI [3]: > 100 µM
TGI [4]: 77.3 µM
TGI [5]: > 100 µM
TGI [6]: > 100 µM
TGI [7]: 46.6 µM
TGI [8]: > 100 µM
TGI [9]: > 100 µM
TGI [10]: > 100 µM
TGI [11]: > 100 µM
TGI [12]: > 100 µM
TGI [13]: 42.2 µM
TGI [14]: > 100 µM

COC(=O)[C@@H]1[C@H]2CC[C@]3(C)[C@@H](OC(C)=O)CC[C@H]3[C@@H]2CC[C@H]1C(C)=O
TGI [1]: > 100 µM
TGI [2]: > 100 µM
TGI [3]: > 100 µM
TGI [4]: > 100 µM
TGI [5]: > 100 µM
TGI [6]: > 100 µM
TGI [7]: > 100 µM
TGI [8]: > 100 µM
TGI [9]: > 100 µM
TGI [10]: > 100 µM
TGI [11]: > 100 µM
TGI [12]: > 100 µM
TGI [13]: > 100 µM
TGI [14]: > 100 µM

CC1N=C(c2ccccc2)OC1=O (stereo not given)
TGI [1]: > 100 µM
TGI [2]: > 100 µM
TGI [3]: > 100 µM
TGI [4]: > 100 µM
TGI [5]: > 100 µM
TGI [6]: > 100 µM
TGI [7]: > 100 µM
TGI [8]: > 100 µM
TGI [9]: > 100 µM
TGI [10]: > 100 µM
TGI [11]: > 100 µM
TGI [12]: > 100 µM
TGI [13]: > 100 µM
TGI [14]: > 100 µM
